These results are taken from PubChem BioAssay (NCI).

As a reminder, the GI50 is the concentration that inhibits growth by half. What is called TGI is the concentration giving total growth inhibition.

Some test systems named below: A498 renal; A549 NSCLC; BT-549 breast; CAKI-1 renal; CCRF-CEM leukemia; HOP-92 NSCLC; K-562 leukemia; LOX IMVI melanoma; PC-3 prostate; SNB-19 CNS.
Common to all, as to experiment: DTP human tumour cell line panel, 48 h

The structures appear in SMILES notation.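 Step 1: Grow cells in 96-well plates. Step 2: Expose to compound for 48 hours at 5 concentrations. Step 3: Interpolate endpoints linearly; if unreached, use highest concentration. Here, GI50 denotes the concentration required for 50% inhibition of growth. TGI: total growth inhibition.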

`COc1cc2ncnc(Oc3ccc(NC(=O)Nc4ccc(CN5CCOCC5)c(C(F)(F)F)c4)c4ccccc34)c2cc1OC`: the GI50 in the assay with A498 renal was 0.0424 µM; in the assay on A549 NSCLC it was 0.734 µM; in the assay on BT-549 breast, 1.11 µM; in the assay with CAKI-1 renal, 0.454 µM; with CCRF-CEM leukemia, 1.18 µM; in the assay with HOP-92 NSCLC it was 0.413 µM. Moreover, the GI50 in the assay with LOX IMVI melanoma was 1.09 µM; in the assay on PC-3 prostate it was 1.75 µM; with SNB-19 CNS it was 2.35 µM. The TGI with A498 renal came out at 0.584 µM; with A549 NSCLC it was 10.5 µM; with BT-549 breast, 5.28 µM; with CAKI-1 renal it was 3.16 µM; in the assay with CCRF-CEM leukemia it was 40.7 µM; in the assay with HOP-92 NSCLC, 6.74 µM. For the same compound, the TGI with K-562 leukemia was determined as 1.5 µM; in the assay with LOX IMVI melanoma, 2.82 µM; in the assay with PC-3 prostate, 9.36 µM; with SNB-19 CNS it was 12.2 µM.

`COc1nn(C)cc1Nc1nccc(-c2c[nH]c3c(NC(=O)[C@@H](C)N4CCN(C)CC4)cccc23)n1`: the GI50 is 15.9 µM in the assay with A498 renal; 44.3 µM with A549 NSCLC; 22.5 µM in the assay with BT-549 breast; 29.2 µM with CAKI-1 renal; 40.4 µM with CCRF-CEM leukemia; 41.7 µM with HOP-92 NSCLC. Besides, the GI50 was 29.2 µM in the assay with K-562 leukemia, 17.1 µM in the assay on LOX IMVI melanoma, 51.2 µM in the assay on PC-3 prostate and 75.6 µM in the assay on SNB-19 CNS. In addition, the TGI in the assay with A498 renal was 45.2 µM; with A549 NSCLC, more than 100 µM; in the assay with BT-549 breast, 72.9 µM; with CAKI-1 renal it was more than 100 µM; in the assay on CCRF-CEM leukemia, more than 100 µM; in the assay with HOP-92 NSCLC, more than 100 µM. The TGI in the assay on K-562 leukemia was more than 100 µM; with LOX IMVI melanoma, 36.5 µM; in the assay with PC-3 prostate, more than 100 µM; with SNB-19 CNS, more than 100 µM.

Turning to `OC(c1cc(C(F)(F)F)nc2c(Cl)cc(Cl)cc12)C1CCCCN1` (stereo not drawn), the TGI in the assay on A498 renal was more than 51.4 µM; with A549 NSCLC, more than 52.2 µM; in the assay on BT-549 breast it was 28.2 µM; with CAKI-1 renal, 21.2 µM; in the assay on CCRF-CEM leukemia, 4.08 µM; in the assay with HOP-92 NSCLC, 21.9 µM. Besides, the TGI in the assay on K-562 leukemia was more than 34.1 µM; with LOX IMVI melanoma, 14.8 µM; with PC-3 prostate, more than 43.1 µM; in the assay with SNB-19 CNS it was more than 52.3 µM.

With `CCN1CCN(C(=O)[C@]23CC[C@@H](C)[C@H](C)[C@@H]2C2=CC[C@@H]4[C@@]5(C)CCC(=O)C(C)(C)[C@@H]5CC[C@@]4(C)[C@]2(C)CC3)CC1`, the GI50 with A498 renal is 0.927 µM; in the assay on A549 NSCLC, 1.47 µM; with BT-549 breast it was 0.833 µM; in the assay on CAKI-1 renal, 0.946 µM; in the assay with CCRF-CEM leukemia, 0.976 µM; with HOP-92 NSCLC, 0.713 µM. The GI50 in the assay on K-562 leukemia was 0.994 µM; with LOX IMVI melanoma, 0.821 µM; with PC-3 prostate it was 0.875 µM; in the assay on SNB-19 CNS it was 0.849 µM. Also, the TGI with A498 renal was 2.42 µM; in the assay with A549 NSCLC it was 5.98 µM; in the assay with BT-549 breast, 1.58 µM; in the assay on CAKI-1 renal, 2.96 µM; in the assay on CCRF-CEM leukemia, 2.74 µM; with HOP-92 NSCLC, 2.06 µM. Also, the TGI was 2.9 µM with K-562 leukemia, 1.52 µM with LOX IMVI melanoma, 3.17 µM in the assay on PC-3 prostate and 1.72 µM with SNB-19 CNS.

Take `Cc1[nH]nc(C(F)(F)F)c1Cc1sc2c(c1C(=O)N1C[C@](C)(O)CO1)c(=O)n(C)c(=O)n2C(C)C`: the GI50 with A498 renal was 47.3 µM; with A549 NSCLC it was more than 100 µM; in the assay with BT-549 breast, more than 100 µM; in the assay with CAKI-1 renal it was more than 100 µM; with CCRF-CEM leukemia, more than 100 µM; in the assay with HOP-92 NSCLC it was more than 100 µM. Further, the GI50 in the assay on LOX IMVI melanoma, with PC-3 prostate and in the assay with SNB-19 CNS was more than 100 µM each time. The TGI in the assay on A498 renal, with A549 NSCLC, with BT-549 breast, in the assay with CAKI-1 renal, in the assay with CCRF-CEM leukemia and in the assay on HOP-92 NSCLC was more than 100 µM each time. For the same compound, the total growth inhibition concentration (TGI) in the assay with K-562 leukemia, with LOX IMVI melanoma, in the assay on PC-3 prostate and in the assay with SNB-19 CNS was more than 100 µM in each case.

As to `Nc1nc(-c2ccc3c(c2)/C(=C\c2cc(Br)c(O)c(Br)c2)C(=O)N3)cs1`, the GI50 is 5.57 µM in the assay with A498 renal; more than 25 µM in the assay with A549 NSCLC; 11.4 µM in the assay on BT-549 breast; more than 25 µM with CAKI-1 renal; 9.36 µM with CCRF-CEM leukemia; 9.19 µM with HOP-92 NSCLC. The GI50 in the assay on K-562 leukemia is 10.6 µM; with LOX IMVI melanoma it was 7.84 µM; in the assay with PC-3 prostate it was 13.6 µM; with SNB-19 CNS it was more than 25 µM. The TGI in the assay on A498 renal was 16.5 µM; in the assay with A549 NSCLC, more than 25 µM; in the assay with BT-549 breast, more than 23.8 µM; in the assay with CAKI-1 renal it was more than 25 µM; in the assay with CCRF-CEM leukemia, more than 25 µM; in the assay on HOP-92 NSCLC, more than 25 µM. The total growth inhibition concentration (TGI) with K-562 leukemia, in the assay with LOX IMVI melanoma, in the assay on PC-3 prostate and in the assay with SNB-19 CNS was more than 25 µM throughout.

As for `Oc1c(C(c2ccc(F)cc2)N2CCCCC2)ccc2cncnc12` (stereo not drawn), the GI50 in the assay on A498 renal was 1.46 µM; in the assay on A549 NSCLC it was 0.377 µM; in the assay on BT-549 breast it was 0.576 µM; in the assay on CAKI-1 renal it was 0.899 µM; in the assay with CCRF-CEM leukemia, 0.477 µM; in the assay on HOP-92 NSCLC it was 0.313 µM. The GI50 was 0.503 µM in the assay with K-562 leukemia, 0.432 µM in the assay with LOX IMVI melanoma, 0.426 µM in the assay with PC-3 prostate and 0.396 µM in the assay on SNB-19 CNS. In addition, the TGI with A498 renal is 9.43 µM; with A549 NSCLC, more than 51.3 µM; in the assay with BT-549 breast, more than 100 µM; in the assay with CAKI-1 renal, 13.4 µM; in the assay with CCRF-CEM leukemia, more than 100 µM; with HOP-92 NSCLC it was 2.96 µM. Besides, the TGI in the assay with K-562 leukemia, in the assay with LOX IMVI melanoma, with PC-3 prostate and with SNB-19 CNS was more than 100 µM in each case.

Take `Cc1ccsc1C(NC(=O)c1ccccc1)c1cc(Cl)c2cccnc2c1O` (stereo not drawn): the GI50 was 0.936 µM in the assay with A498 renal; 0.764 µM in the assay on A549 NSCLC; 2.04 µM with BT-549 breast; 0.495 µM with CAKI-1 renal; 0.48 µM with CCRF-CEM leukemia; 0.442 µM with HOP-92 NSCLC. Moreover, the 50% growth inhibitory concentration (GI50) in the assay on K-562 leukemia was 0.381 µM; with LOX IMVI melanoma it was 0.504 µM; in the assay with PC-3 prostate, 0.45 µM; in the assay on SNB-19 CNS, 0.394 µM. The total growth inhibition concentration (TGI) in the assay on A498 renal stood at 7.29 µM; with A549 NSCLC it was 13.6 µM; in the assay on BT-549 breast, 21.3 µM; with CAKI-1 renal it was 14.9 µM; with CCRF-CEM leukemia, 39 µM; with HOP-92 NSCLC it was 7.45 µM. Also, the TGI with K-562 leukemia was more than 100 µM; in the assay with LOX IMVI melanoma it was 2.32 µM; with PC-3 prostate it was 16.6 µM; with SNB-19 CNS it was 15.7 µM.
